The target in assay [1] is T1, GPR84 F187A (GPR84-Gi2α fusion protein) (Homo sapiens, UniProt Q9NQS5, F187A).
T1 construct: FLAG (N); Gαi2-Cys352Ile (fusion partner) (C); expressed in transfected cells
Nature of the assay: [35S]GTPγS binding assay. It is filed as biochemical. Here is the method: (§1) Membranes were generated from Flp-In™ T-REx™ 293 cells following 100 ng/ml doxycycline treatment to induce receptor expression. Cells were washed with ice-cold phosphate-buffered saline (PBS), removed from dishes by scraping and centrifuged at 1,800 x g for 5 min at 4 °C. Pellets were resuspended in TE buffer (10mM Tris-HCl, 0.1 mM EDTA; pH 7.4) containing a protease inhibitor mixture and homogenized with a 5 ml hand-held homogenizer. Samples were centrifuged at 450 x g for 5 min at 4 °C and the supernatant was further centrifuged at 90,000 x g for 45 min at 4 °C. The resulting pellet was resuspended in TE buffer and protein content was assessed using a BCA protein assay kit.
(§2) Prepared membrane protein (3 μg per well) was incubated in assay buffer (20 mM HEPES, 5 mM MgCl2, 160 mM NaCl, 0.05 % fatty-acid-free bovine serum albumin; pH 7.4) containing the indicated ligand concentrations. The reaction was initiated by addition of [^35S]GTPγS (100 nCi per reaction) with 1 μM GDP, and incubated at 30 °C for 60 min. The reaction was terminated by rapid vacuum filtration through GF/C glassfibre filter-bottom 96-well microplates using a UniFilter FilterMate Harvester (PerkinElmer). Unbound radioligand was removed from filters by three washes with ice-cold PBS. Ultima Gold™ XR was added to dried filters, and [^35S]GTPγS binding quantified by liquid scintillation spectroscopy.
Background: GTPγS resists hydrolysis and so accumulates on activated G proteins.

The target of assay [2] is T2, GPR84 Y81A (GPR84-Gi2α fusion protein) (Homo sapiens, UniProt Q9NQS5, Y81A).
T2 construct: FLAG (N); Gαi2-Cys352Ile (fusion partner) (C); expressed in transfected cells
T2 sequence (Q9NQS5 whole entry Y81A, the tested form may be a part): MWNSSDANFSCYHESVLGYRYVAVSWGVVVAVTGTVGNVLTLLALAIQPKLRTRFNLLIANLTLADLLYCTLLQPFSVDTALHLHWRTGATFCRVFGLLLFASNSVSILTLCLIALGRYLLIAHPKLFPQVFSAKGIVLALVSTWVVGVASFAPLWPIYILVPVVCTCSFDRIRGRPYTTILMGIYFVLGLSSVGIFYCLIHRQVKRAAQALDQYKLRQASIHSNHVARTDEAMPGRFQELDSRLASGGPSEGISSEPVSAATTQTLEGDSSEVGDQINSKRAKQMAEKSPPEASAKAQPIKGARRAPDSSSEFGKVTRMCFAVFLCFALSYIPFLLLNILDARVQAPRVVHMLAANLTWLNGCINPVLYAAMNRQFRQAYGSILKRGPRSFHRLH
The experiment in a line: [35S]GTPγS binding assay. In kind it is biochemical. The following applies: for fold reduced potency compared to wild type: Tyr81Ala; for Emax: read-out: Emax ± SEM. How it is done: as §1, §2

Assay [3] deals with T3, wild type GPR84 (Homo sapiens, UniProt Q9NQS5).
T3 construct: expressed in transfected cells
T3 sequence (Q9NQS5 whole entry): as the sequence (Q9NQS5 whole entry Y81A, the tested form may be a part) above, with A81Y counted along it
Nature of the assay: pThr263/pThr264 immunoblot of immunoprecipitated GPR84-eYFP. In kind it is cell-based. Conditions: 1 μM. Here is the method:
eYFP-linked receptor constructs were immunoprecipitated from 200 μl cell lysates using GFP-Trap® agarose beads (Proteintech) according to manufacturer’s instructions. Immunocomplexes were washed three times in washing buffer, resuspended in 100 μl 2 × SDS-PAGE sample buffer and incubated at 60 °C for 10 min. Following centrifugation at 2500g for 5 min, 20 μl of immunoprecipitated proteins was resolved by SDS-PAGE on 4% to 12% BisTris gels. After separation, the proteins were transferred electrophoretically onto nitrocellulose membrane, which was then blocked using 5% bovine serum albumin (BSA) in Tris-buffered saline (TBS, 50 mM Tris-Cl, 150 mM NaCl, pH 7.6) for 1 h at room temperature on an orbital shaker. The membrane was then incubated with appropriate primary antibody in 5% BSA in TBS supplemented with 0.1% Tween (TBS-T) overnight at 4 °C. Anti-pThr^263/pThr^264 antiserum was diluted 1:2000 and anti-GFP was diluted 1:10,000. Subsequently, the membrane was washed (3 × 10 min with TBS-T) and incubated for 2 h with anti-rabbit secondary antibody diluted 1:10,000 in 5% BSA in TBS-T. After washing (3 × 10 min with TBS-T), proteins were detected using an Odyssey imaging system (Licor) according to the manufacturer’s instructions.
In general terms: Immunoblotting shows a protein as a band on a membrane.

Assay [4] deals with T4, GPR84 L336A (Homo sapiens, UniProt Q9NQS5, L336A).
T4 construct: FLAG (N); eYFP (C); expressed in transfected cells; host or cells: HEK293T, transient
T4 sequence (Q9NQS5 whole entry L336A): as the sequence (Q9NQS5 whole entry Y81A, the tested form may be a part) above, with A81Y, L336A counted along it
The experiment in a line: BRET β-arrestin-2 recruitment assay, HEK293T cells. In kind it is cell-based. Conditions: for EC50: L336A, read-out: β-arrestin-2 pEC50 ± SEM (converted). How it is done: (§3) As a control, cells were transfected with 100:1 ratio of empty plasmid and the appropriate arrestin isoform fused to nano-luciferase. After 24 h, cells were seeded at 50,000 cells per well in poly-D-lysine-coated white 96-well plates and incubated at 37°C overnight. After 24 h, cells were washed twice with Hank’s balanced salt solution (HBSS), pH 7.4, and 10 μl/well of the nano-luciferase substrate coelenterazine-h (Nanolight Technologies) was added to a final concentration of 5 μM. Cells were incubated in the dark for 10 min at 37°C, after which 10 μl/well of the agonist compound was added, and the cells were incubated for another 5 minutes. 15 min after coelenterazine-h addition, reading of emission signals were performed on a PHERAstar FS plate reader (BMG Labtech) at 475 and 535 nm, representing nano-luciferase and eYFP emission signals, respectively. The net bioluminescence resonance energy transfer (BRET) ratio (mBRET) was calculated as follows: mBRET=(BRET^sample−BRET^control)*1000whereBRET=Emission^535nm/Emission^475nm
For orientation: Bioluminescence resonance energy transfer reports proximity on the nanometre scale.

For assay [5], the target named is T5, GPR84 F187A (Homo sapiens, UniProt Q9NQS5, F187A).
T5 construct: FLAG (N); eYFP (C); expressed in transfected cells; host or cells: HEK293T, transient
T5 sequence (Q9NQS5 whole entry F187A): as the sequence (Q9NQS5 whole entry Y81A, the tested form may be a part) above, with A81Y, F187A counted along it
The experiment in a line: BRET β-arrestin-2 recruitment assay, HEK293T cells. In kind it is cell-based. Conditions: for EC50: F187A, read-out: β-arrestin-2 pEC50 ± SEM (converted). Here is the method: as §3

For assay [6], the target named is T6, GPR84-WT (Homo sapiens, UniProt Q9NQS5).
T6 construct: FLAG (N); eYFP (C); expressed in transfected cells; host or cells: HEK293T, transient
T6 sequence (Q9NQS5 whole entry): as the sequence (Q9NQS5 whole entry Y81A, the tested form may be a part) above, with A81Y counted along it
Nature of the assay: BRET β-arrestin-2 recruitment assay, HEK293T cells. It is filed as cell-based. Conditions: Extended Data Table 4, read-out: β-arrestin-2 pEC50 ± SEM (converted). Here is the method:
as §3

Assay [7] addresses T7, GPR84 (Homo sapiens, UniProt Q9NQS5). Nature of the assay: CHO-K1-based HitHunter cAMP inhibition assay. Conditions: wild type GPR84; for EC50: CHO-K1 cells, forskolin 25 μM, read-out: cAMP pEC50 ± SEM (converted); for Emax: normalised to capric acid (100 μM), read-out: cAMP %Emax ± SEM. In kind it is cell-based. How it is done:
CHO-K1 cells stably expressing human GPR84 (DiscoverX 95-0158C2) were seeded in 384-well plates at 15,000 cells per well in 20 μL of F12 medium supplemented with 10% fetal bovine serum (FBS), 19 mM HEPES, and 1% penicillin-streptomycin. After overnight incubation at 37 °C and 5% CO2, the medium was removed and replaced with PBS containing 0.1% BSA. Cells were stimulated for 30 min with forskolin (25 μM) and test compounds prepared in Dulbecco’s PBS (DPBS) with 0.1% BSA. Compounds were dissolved in DMSO and diluted appropriately. cAMP levels were quantified using the HitHunter® cAMP Assay for Small Molecules (DiscoverX 90-0075SM2) according to the manufacturer’s protocol. Luminescence was measured 18 h post-assay using a PHERAstar® FS plate reader (BMG Labtech).

Assay [8] addresses T7, GPR84. Nature of the assay: CHO-K1-based PathHunter β-arrestin-2 recruitment assay. More on the design: host or cells: CHO-K1. The following applies: for Emax: read-out: β-arrestin-2 %Emax ± SEM. It is filed as cell-based. How it is done:
Cells were stimulated with test ligands for 90 min. Compounds were prepared at 5× concentration in DPBS containing 0.1% BSA and 0.125% Tween-80 to minimise aggregation. β-arrestin recruitment was quantified using the PathHunter® β-Arrestin Assay (DiscoverX 93-0001) following the manufacturer’s instructions. Luminescence was recorded after 18 h using a PHERAstar® FS plate reader.

[9] abbreviates: F187A, read-out: pEC50 ± SEM (converted).

Like-named read-outs stand apart in the source and are kept apart here.

A word on the Emax: it is the maximal effect, on the per cent scale that the assay sets.

T7 sequence (Q9NQS5 whole entry): as the sequence (Q9NQS5 whole entry Y81A, the tested form may be a part) above, with A81Y counted along it
T1 sequence (Q9NQS5 whole entry F187A, the tested form may be a part): as the sequence (Q9NQS5 whole entry Y81A, the tested form may be a part) above, with A81Y, F187A counted along it

For the compound `[O-][n+]1cc(O)cc(CCc2ccc(Cl)c(C(F)(F)F)c2)c1` [OX04529], the EC50 in assay [1] (setting [9]) was 0.102 nM; in assay [1] (Phe187Ala, read-out: EC50) it was ~0.1 nM; in assay [2] ([35S]GTPγS, Y81A), 21.4 nM; in assay [4] it was 1.23 nM; in assay [5], 3.09 nM; in assay [6] it was 58.9 nM. The EC50 in assay [7] is 0.012 nM. In assay [1] (Phe187Ala), the “fold greater potency than at wild type” value is “more than 10 fold”. Besides, in assay [2] ([35S]GTPγS), the “fold reduced potency compared to wild type” value is given as ~10 fold. For the same compound, the results for the Emax in assay [2], in assay [7] and in assay [8] were 85 ± 4%, 97 ± 0.2% and 10 ± 1.5%, respectively. Besides, the “phosphorylation of Thr263 and Thr264 (immunoblot)” value in assay [3] was “ineffective”. The “efficacy in promoting interaction with β-arrestin-2” value in assay [4] (Leu336Ala GPR84, HEK293T) is given as “full agonist”; in assay [5] (Phe187Ala GPR84, HEK293T) it was “substantial efficacy”.
Take `Cc1cc(CCCc2cc(O)c[n+]([O-])c2)ccc1Cl` [OX04954]: the EC50 in assay [1] (setting [9]) is 0.107 nM; in assay [2] ([35S]GTPγS, Y81A) it was 16.2 nM; in assay [4], 1.32 nM; in assay [5] it was 4.07 nM; in assay [6] it was 28.2 nM; in assay [7], 0.0126 nM. Besides, the EC50 in assay [8] (wild type GPR84, CHO-K1 PathHunter, read-out: β-arrestin-2 pEC50 ± SEM (converted)) was 93.3 nM. In addition, the “fold reduced potency compared to wild type” value in assay [2] ([35S]GTPγS) was ~10 fold. Moreover, the Emax stood at 133 ± 18% in assay [2] ([35S]GTPγS, Y81A); 98 ± 1.8% in assay [7]; 71 ± 1.3% in assay [8]. In addition, the “phosphorylation of Thr263 and Thr264 (immunoblot)” value in assay [3] is on record as “promoted phosphorylation”. Further, the “change in efficacy in β-arrestin-2 recruitment” value in assay [8] (compared to OX04929 (so in the source)) is “no significant change”.

Values taken from doi:10.1101/2025.07.30.667614, “Steric control of signaling bias in the immunometabolic receptor GPR84” (bioRxiv, 2025).
